Patent US8686043B2, “Heterocyclic sulfonamides, uses and pharmaceutical compositions thereof” (Pfizer Inc., priority 2009, dated 2014)

Test system: AMPA receptors
Test: AMPA ES Cell FLIPR Screen (AMPA Potentiator Assay)
Format: cell-based, murine
Conditions: ES cell-derived neurons, FLIPR (Fluo-4), 32 μM AMPA challenge; values marked * are the geometric mean of 2-5 EC50 determinations
Excerpt: Growth and Maintenance of ES Cells
Murine ES cell line E14, with a targeted mutation in the Sox1 gene and a neuroectodermal marker that offers G418 resistance when the Sox1 gene is expressed (Stem Cell Sciences, West Mains Road, Edinburgh, Scotland EH9 3JQ) may be used in all experiments. ES cells may be maintained undifferentiated as previously described (Methods For The Isolation And Maintenance Of Murine Embryonic Stem Cells; Roach-M-L, McNeish-J-D., Methods in Molecular Biology, 185, 1-16 (2002)). Briefly, ES cells may be grown in stem cell culture media comprising a base medium of Knockout™ D-MEM (Invitrogen 5791 Van Allen Way, Carlsbad, Calif. USA 92008), supplemented with 15% ES qualified Fetal Bovine Serum (FBS) (Invitrogen), 0.2 mM L-Glutamine (Invitrogen), 0.1 mM MEM non-essential amino acids (Invitrogen), 30 μg/ml Gentamicin […] (Invitrogen), 1000 U/ml ESGRO™ (CHEMICON International, Inc., 28820 Single Oak Drive, Temecula, Calif. 92590) and 0.1 mM 2-mercaptoethanol (Sigma, 3050 Spruce St., St. Louis, Mo. 63103). ES cells may then be plated on gelatin-coated dishes (BD Biosciences, 2350 Qume Drive, San Jose, Calif. 95131), wherein the media is changed daily and the cells dissociated with 0.05% Trypsin EDTA (Invitrogen) every other day.
Neural In Vitro Differentiation of ES Cells
Embryoid Body Formation: Prior to embryoid body (EB) formation the ES cells may be weaned from FBS onto Knockout Serum Replacement™ (KSR) (Invitrogen). To form EBs, ES cells may be dissociated into a single cell suspension, then 3×10^6 cells plated in bacteriology dishes (Nunc 4014) and grown as a suspension culture in NeuroEB-I medium that consisted of Knockout™ D-MEM (Invitrogen), supplemented with 10% KSR (Invitrogen), 0.2 mM L-Glutamine (Invitrogen), 0.1 mM MEM non-essential amino acids (Invitrogen), 30 μg/ml Gentamicin (Invitrogen), 1000 U/ml ESGRO™ (CHEMICON International, Inc.), 0.1 mM 2-mercaptoethanol (Sigma) and 150 ng/ml Transferrin (Invitrogen). The plates may then be put on a Stovall Belly Button™ shaker in an atmospheric oxygen incubator. The media may be changed on day 2 of EB formation with NeuroEB-I and on day 4 with NeuroEB-II (NeuroEB-I plus 1 μg/ml mNoggin (R&D Systems, 614 McKinley Place N.E. Minneapolis, Minn. 55413)
Neuronal Precursor Selection and Expansion: On day 5 of EB formation, EBs may be dissociated with 0.05% Trypsin EDTA, and 4×10^6 cells/100 mm dish may then be plated on Laminin coated tissue culture dishes in NeuroEB-II-G418 medium that consisted of a base medium of a 1:1 mixture of D-MEM/F12 supplemented with N2 supplements and NeuroBasal Medium supplemented with B27(I ASSUME THIS IS THE VITAMIN) supplement and 0.1 mM L-Glutamine (all from Invitrogen). The base medium may then be supplemented with 10 ng/ml bFGF (Invitrogen), 1 μg/ml mNoggin, 500 ng/ml SHH-N (IS THIS SONIC HEDGEHOG FROM ProSpecBio Rehovot Science Park, P.O. BOX 398, Rehovot 76103, Israel), 100 ng/ml FGF-8b (R&D Systems), 1 μg/ml Laminin and 200 μg/ml G418 (Invitrogen) for selection of neuronal precursors expressing Sox-1. The plates may then be put in an incubator containing 2% oxygen and maintained in these conditions. During the 6-day selection period, the NeuroEB-II ([…]) media should be changed daily. On day 6, the surviving neuronal precursor foci may then be dissociated with 0.05% Trypsin EDTA and the cells plated at a density of 1.5×10^6 cells/100 mm Laminin coated dish in Neuroll ([…])-G418 medium. The cells may then be dissociated every other day for expansion, and prepared for cryopreservation at passage 3 or 4. The cryopreservation medium typically contains 50% KSR, 10% dimethyl sulfoxide (DMSO) (Sigma) and 40% Neurol([…])-G418 medium. Neuronal precursors may be cryopreserved at a concentration of 4×10^6 cells/ml and 1 ml/cryovial in a controlled rate freezer overnight then transferred to an ultra-low freezer or liquid nitrogen for long-term storage. […]

Row | Structure (SMILES) | EC50
1 | CC(C)S(=O)(=O)N[C@H]1CCC[C@H]1Oc1ccc(-c2ccc(C#N)s2)c(F)c1 [Example 32, N-{(1S,2R)-2-[4-(5-cyano-2-thienyl)-3-fluorophenoxy]cyclopentyl} propane-2-sulfonamide] | 1400 nM
2 | CC(C)S(=O)(=O)N[C@H]1CCC[C@H]1Oc1ccc(-c2cccc(C(=O)NC3CC3)c2)c(F)c1 [Example 33, N-cyclopropyl-2′-fluoro-4′-({(1R,2S)-2-[(isopropylsulfonyl)amino]cyclopentyl}oxy) biphenyl-3-carboxamide] | 623 nM
3 | CC(C)S(=O)(=O)N[C@H]1CCC[C@H]1Oc1ccc(-c2ccc(CCNS(C)(=O)=O)cc2)c(F)c1 [Example 34, N-{(1S,2R)-2-[(2-fluoro-4′-{2-[(methylsulfonyl)amino]ethyl}biphenyl-4-yl)oxy]cyclopentyl} propane-2-sulfonamide] | 3220 nM
4 | CC(C)S(=O)(=O)N[C@H]1CCCC[C@H]1Oc1ccc(-c2ccccc2C#N)c(F)c1 [Example 35, N-{(1S,2R)-2-[(2′-cyano-2-fluorobiphenyl-4-yl)oxy]cyclohexyl} propane-2-sulfonamide] | 525 nM
5 | CC(C)S(=O)(=O)N[C@H]1CCCC[C@H]1Oc1ccc(-c2ccc(F)cc2C#N)c(F)c1 [Example 36, N-{(1S,2R)-2-[(2′-cyano-2,4′-difluorobiphenyl-4-yl)oxy]cyclohexyl} propane-2-sulfonamide] | 1610 nM
6 | CC(C)S(=O)(=O)N[C@H]1CCCC[C@H]1Oc1ccc(-c2ccc(C#N)s2)c(F)c1 [Example 37, N-{(1S,2R)-2-[4-(5-cyano-2-thienyl)-3-fluorophenoxy]cyclohexyl} propane-2-sulfonamide] | 1720 nM
7 | CCOc1ccccc1-c1ccc(O[C@@H]2CCCC[C@@H]2NS(=O)(=O)C(C)C)cc1 [Example 39, N-{(1S,2R)-2-[(2′-ethoxybiphenyl-4-yl)oxy]cyclohexyl} propane-2-sulfonamide] | 1420 nM
8 | CC(C)S(=O)(=O)N[C@H]1CCCC[C@H]1Oc1ccc(-c2ccc(C#N)s2)nc1 [Example 42, N-[(1S,2R)-2-{[6-(5-cyano-2-thienylpyridin)-3-yl]oxy}cyclohexyl] propane-2-sulfonamide] | 2780 nM

These reach a lower EC50. Values come first.

Row | EC50 | Structure (SMILES)
9 | 327 nM | CCOc1ccccc1-c1ccc(O[C@@H]2CCC[C@@H]2NS(=O)(=O)C(C)C)cc1F [Example 31, N-{(1S,2R)-2-[(2′-ethoxy-2-fluorobiphenyl-4-yl)oxy]cyclopentyl} propane-2-sulfonamide]
10 | 327 nM | CC(C)S(=O)(=O)N[C@H]1CCCC[C@H]1Oc1ccc(N2CCCC2)cc1 [Example 38, N-[(1S,2R)-2-(4-pyrrolidin-1-ylphenoxy)cyclohexyl] propane-2-sulfonamide]
11 | 148 nM | CC(C)S(=O)(=O)N[C@H]1CCCC[C@H]1Oc1ccc(-c2ccccc2OCC(F)(F)F)nc1 [Example 40, N-[(1S,2R)-2-({6-[2-(2,2,2-trifluoroethoxy)phenyl]pyridin-3-yl}oxy)cyclohexyl] propane-2-sulfonamide]
12 | 331 nM | CC(C)S(=O)(=O)N[C@H]1CCCC[C@H]1Oc1ccc(-c2ccccc2OC(F)(F)F)nc1 [Example 41, N-[(1S,2R)-2-({6-[2-(trifluoromethoxy)phenyl]pyridin-3-yl}oxy)cyclohexyl] propane-2-sulfonamide]
13 | 503 nM | CC(C)S(=O)(=O)N[C@H]1CCCC[C@H]1Oc1ccc(N2CCCCC2)cc1 [Example 54, N-[(1S,2R)-2-(4-piperidin-1-ylphenoxy)cyclohexyl]pro-pane-2-sulfonamide]
